How the values were obtained:
[1] = system: myosin 1, myosin 5, and myosin 10; details: cited from earlier work
myosin 2 = myosin 2 inhibitors, review data; cited from earlier work
skeletal muscle myosin 2 = details: cited from earlier work
platelet myosin 2 = platelet myosin 2 (Homo sapiens, UniProt P35579); details: cited from earlier work
[2] = biological target: recombinant Dictyostelium miozin (Dictyostelium) (Dictyostelium discoideum, UniProt P08799); experiment: actomyosin steady state ATPase measurement, Dictyostelium myosin; format: biochemical; details: for IC50: concentration required for semi-maximal inhibition of ATPase, read-out: IC50 (μM) Dicty; for inhibition at 5 µM: read-out: % inhibition at 5 μM (or 10 μM if racemate) Dicty; for inhibition at 50 µM: read-out: % inhibition at 50 μM (or 100 μM if racemate) Dicty
Source text: (§1) […]; (ii) the concentration required for semi-maximal inhibition.

[3] = biological target: recombinant human non-muscle myosin 2 NM2A (Homo sapiens, UniProt P35579); experiment: actomyosin steady state ATPase measurement, NM2A; format: biochemical; details: for IC50: concentration required for semi-maximal inhibition of ATPase; for inhibition at 5 µM: read-out: % inhibition at 5 μM (or 10 μM if racemate) NM2A, 5 μM (10 μM if racemate); for inhibition at 5 µM / inhibition at 50 µM: ATPase activity; for inhibition at 50 µM: read-out: % inhibition at 50 μM (or 100 μM if racemate) NM2A, 50 μM (100 μM if racemate)
Source text: as §1

[4] = biological target: recombinant human non-muscle myosin 2 NM2C (Homo sapiens, UniProt Q7Z406); experiment: actomyosin steady state ATPase measurement, NM2C; format: biochemical; details: for IC50: concentration required for semi-maximal inhibition of ATPase; for inhibition at 5 µM: read-out: % inhibition at 5 μM (or 10 μM if racemate) NM2C, 5 μM (10 μM if racemate); for inhibition at 5 µM / inhibition at 50 µM: ATPase activity; for inhibition at 50 µM: read-out: % inhibition at 50 μM (or 100 μM if racemate) NM2C, 50 μM (100 μM if racemate)
Source text: as §1

[5] = biological target: T1, isolated porcine cardiac ventricular myocardium (cardiac) (Sus scrofa, UniProt P79293); experiment: actomyosin steady state ATPase measurement, cardiac myosin; format: biochemical; details: for IC50: concentration required for semi-maximal inhibition of ATPase; for % inhibition. complete cardiac: maximum value of inhibition of ATPase activity; for inhibition at 5 µM: read-out: % inhibition at 5 μM (or 10 μM if racemate) cardiac, 5 μM (10 μM if racemate); for inhibition at 5 µM / inhibition at 50 µM: ATPase activity; for inhibition at 50 µM: read-out: % inhibition at 50 μM (or 100 μM if racemate) cardiac, 50 μM (100 μM if racemate)
T1 construct: isolated porcine cardiac ventricular myocardium (cardiac); from tissue; host or cells: porcine cardiac ventricle
Source text: as §1

[6] = system: isolated rabbit skeletal muscle myosin (skeletal); experiment: actomyosin steady state ATPase measurement, skeletal muscle myosin; format: biochemical; details: for % inhibition at 5 μM (or 10 μM if racemate) Skeletal: 5 μM (10 μM if racemate); for % inhibition at 5 μM (or 10 μM if racemate) Skeletal / % inhibition at 50 μM (or 100 μM if racemate) Skeletal: ATPase activity; for % inhibition at 50 μM (or 100 μM if racemate) Skeletal: 50 μM (100 μM if racemate); for IC50: concentration required for semi-maximal inhibition of ATPase; for % inhibition. complete Skeletal: maximum value of inhibition of ATPase activity
Source text: as §1

[7] = biological target: isolated smooth muscle myosin (UniProt P10587); format: biochemical, chamois; details: concentration required for semi-maximal inhibition of ATPase
Source text: (ii) the concentration required for semi-maximal inhibition.

M. quadriceps femoris = experiment: isometric force measurement of live, anesthetized rat M. quadriceps femoris due to electrical stimulation; format: in vivo
Experimental: The maximum isometric force induced by the stimulation was determined after intraperitoneal injection of some of the compounds of the invention. During the measurement, the following parameters of live anesthetized rats were continuously monitored: • a) heart rate • b) blood flow in the neck arteries • c) respiratory frequency • d) blood oxygen saturation ratio Results from live anesthetized rats are summarized in the table below.

[8] = vital parameters of live anesthetized rats monitored during isometric force measurement; format: in vivo; details: anesthetized rat; for Maximum change of vital parameters (%) blood flow: neck arteries
Experimental: The maximum isometric force induced by the stimulation was determined after intraperitoneal injection of some of the compounds of the invention. During the measurement, the following parameters of live anesthetized rats were continuously monitored: • a) heart rate • b) blood flow in the neck arteries • c) respiratory frequency • d) blood oxygen saturation ratio

[9] = solubility in PBS in the presence of 1% DMSO; format: physicochemical; details: phosphate buffered saline with 1% DMSO, aqueous buffer, kinetic from dmso stock, PBS w/o Mg, Ca
[10] = biological target: isolated smooth muscle myosin (UniProt P10587); format: biochemical, chamois; details: for % inhibition at 5 μM (or 10 μM if racemate) Smooth: 5 μM (10 μM if racemate); for % inhibition at 5 μM (or 10 μM if racemate) Smooth / % inhibition at 50 μM (or 100 μM if racemate) Smooth: ATPase activity; for % inhibition at 50 μM (or 100 μM if racemate) Smooth: 50 μM (100 μM if racemate); for % inhibition. complete Smooth: maximum value of inhibition of ATPase activity
[11] = biological target: recombinant human non-muscle myosin 2 NM2B (Homo sapiens, UniProt P35580); experiment: actomyosin steady state ATPase measurement, NM2B; format: biochemical
Source text: as §1

[12] = maximum value of inhibition of ATPase activity

Sequence of recombinant Dictyostelium miozin (Dictyostelium) (P08799 whole entry): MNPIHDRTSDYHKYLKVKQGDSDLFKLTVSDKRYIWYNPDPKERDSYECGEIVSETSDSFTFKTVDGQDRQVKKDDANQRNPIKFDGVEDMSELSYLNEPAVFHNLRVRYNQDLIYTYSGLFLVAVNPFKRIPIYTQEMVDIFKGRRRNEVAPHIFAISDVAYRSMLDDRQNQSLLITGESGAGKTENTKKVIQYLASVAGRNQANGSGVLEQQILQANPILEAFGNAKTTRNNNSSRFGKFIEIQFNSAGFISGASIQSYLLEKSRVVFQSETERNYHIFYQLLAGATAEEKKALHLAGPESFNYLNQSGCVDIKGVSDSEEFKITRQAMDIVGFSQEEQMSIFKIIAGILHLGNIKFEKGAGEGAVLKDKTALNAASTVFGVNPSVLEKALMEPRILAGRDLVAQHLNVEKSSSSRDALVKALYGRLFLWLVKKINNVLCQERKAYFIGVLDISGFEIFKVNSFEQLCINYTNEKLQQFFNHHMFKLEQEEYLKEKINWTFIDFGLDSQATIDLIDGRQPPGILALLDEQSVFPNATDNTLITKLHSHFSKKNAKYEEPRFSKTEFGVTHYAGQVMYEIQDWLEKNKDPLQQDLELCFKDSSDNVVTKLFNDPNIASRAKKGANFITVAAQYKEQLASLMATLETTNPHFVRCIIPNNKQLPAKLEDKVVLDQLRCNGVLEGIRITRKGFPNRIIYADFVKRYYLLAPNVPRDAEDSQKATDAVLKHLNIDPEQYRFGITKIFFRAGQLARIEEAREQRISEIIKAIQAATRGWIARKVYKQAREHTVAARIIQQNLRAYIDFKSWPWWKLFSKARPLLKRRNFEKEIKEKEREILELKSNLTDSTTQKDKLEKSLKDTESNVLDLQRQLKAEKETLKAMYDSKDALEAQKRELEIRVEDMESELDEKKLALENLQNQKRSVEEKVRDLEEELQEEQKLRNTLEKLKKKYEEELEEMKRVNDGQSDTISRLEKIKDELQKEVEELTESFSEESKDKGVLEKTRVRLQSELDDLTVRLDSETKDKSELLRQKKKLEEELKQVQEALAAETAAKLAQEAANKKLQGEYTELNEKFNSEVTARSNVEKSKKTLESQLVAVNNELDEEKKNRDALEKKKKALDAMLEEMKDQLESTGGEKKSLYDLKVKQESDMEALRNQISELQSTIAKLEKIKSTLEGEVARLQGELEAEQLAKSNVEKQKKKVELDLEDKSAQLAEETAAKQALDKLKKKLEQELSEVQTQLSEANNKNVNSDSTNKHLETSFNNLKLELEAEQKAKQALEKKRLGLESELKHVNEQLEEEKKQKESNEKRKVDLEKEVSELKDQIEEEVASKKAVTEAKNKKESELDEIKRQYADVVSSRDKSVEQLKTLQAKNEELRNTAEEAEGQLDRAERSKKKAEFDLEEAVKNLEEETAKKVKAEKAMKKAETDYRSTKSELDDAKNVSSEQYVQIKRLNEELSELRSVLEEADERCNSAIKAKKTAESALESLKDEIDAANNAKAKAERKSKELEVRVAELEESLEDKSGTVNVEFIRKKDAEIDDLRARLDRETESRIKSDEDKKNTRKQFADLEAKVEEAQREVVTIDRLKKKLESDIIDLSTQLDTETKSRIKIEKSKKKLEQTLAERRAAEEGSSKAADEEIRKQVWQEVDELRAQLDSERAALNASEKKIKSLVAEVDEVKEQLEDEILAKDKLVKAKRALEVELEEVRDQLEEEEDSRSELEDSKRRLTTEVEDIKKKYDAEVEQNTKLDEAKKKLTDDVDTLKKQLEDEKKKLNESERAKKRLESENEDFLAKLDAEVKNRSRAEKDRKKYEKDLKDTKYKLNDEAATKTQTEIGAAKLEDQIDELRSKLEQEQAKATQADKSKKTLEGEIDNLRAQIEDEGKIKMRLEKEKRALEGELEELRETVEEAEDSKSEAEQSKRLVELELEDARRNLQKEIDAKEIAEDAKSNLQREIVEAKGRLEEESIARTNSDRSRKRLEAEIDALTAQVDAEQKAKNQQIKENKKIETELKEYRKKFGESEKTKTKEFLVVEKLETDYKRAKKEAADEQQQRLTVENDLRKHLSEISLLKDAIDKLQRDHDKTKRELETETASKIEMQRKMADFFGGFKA
Sequence of recombinant human non-muscle myosin 2 NM2A (P35579 whole entry): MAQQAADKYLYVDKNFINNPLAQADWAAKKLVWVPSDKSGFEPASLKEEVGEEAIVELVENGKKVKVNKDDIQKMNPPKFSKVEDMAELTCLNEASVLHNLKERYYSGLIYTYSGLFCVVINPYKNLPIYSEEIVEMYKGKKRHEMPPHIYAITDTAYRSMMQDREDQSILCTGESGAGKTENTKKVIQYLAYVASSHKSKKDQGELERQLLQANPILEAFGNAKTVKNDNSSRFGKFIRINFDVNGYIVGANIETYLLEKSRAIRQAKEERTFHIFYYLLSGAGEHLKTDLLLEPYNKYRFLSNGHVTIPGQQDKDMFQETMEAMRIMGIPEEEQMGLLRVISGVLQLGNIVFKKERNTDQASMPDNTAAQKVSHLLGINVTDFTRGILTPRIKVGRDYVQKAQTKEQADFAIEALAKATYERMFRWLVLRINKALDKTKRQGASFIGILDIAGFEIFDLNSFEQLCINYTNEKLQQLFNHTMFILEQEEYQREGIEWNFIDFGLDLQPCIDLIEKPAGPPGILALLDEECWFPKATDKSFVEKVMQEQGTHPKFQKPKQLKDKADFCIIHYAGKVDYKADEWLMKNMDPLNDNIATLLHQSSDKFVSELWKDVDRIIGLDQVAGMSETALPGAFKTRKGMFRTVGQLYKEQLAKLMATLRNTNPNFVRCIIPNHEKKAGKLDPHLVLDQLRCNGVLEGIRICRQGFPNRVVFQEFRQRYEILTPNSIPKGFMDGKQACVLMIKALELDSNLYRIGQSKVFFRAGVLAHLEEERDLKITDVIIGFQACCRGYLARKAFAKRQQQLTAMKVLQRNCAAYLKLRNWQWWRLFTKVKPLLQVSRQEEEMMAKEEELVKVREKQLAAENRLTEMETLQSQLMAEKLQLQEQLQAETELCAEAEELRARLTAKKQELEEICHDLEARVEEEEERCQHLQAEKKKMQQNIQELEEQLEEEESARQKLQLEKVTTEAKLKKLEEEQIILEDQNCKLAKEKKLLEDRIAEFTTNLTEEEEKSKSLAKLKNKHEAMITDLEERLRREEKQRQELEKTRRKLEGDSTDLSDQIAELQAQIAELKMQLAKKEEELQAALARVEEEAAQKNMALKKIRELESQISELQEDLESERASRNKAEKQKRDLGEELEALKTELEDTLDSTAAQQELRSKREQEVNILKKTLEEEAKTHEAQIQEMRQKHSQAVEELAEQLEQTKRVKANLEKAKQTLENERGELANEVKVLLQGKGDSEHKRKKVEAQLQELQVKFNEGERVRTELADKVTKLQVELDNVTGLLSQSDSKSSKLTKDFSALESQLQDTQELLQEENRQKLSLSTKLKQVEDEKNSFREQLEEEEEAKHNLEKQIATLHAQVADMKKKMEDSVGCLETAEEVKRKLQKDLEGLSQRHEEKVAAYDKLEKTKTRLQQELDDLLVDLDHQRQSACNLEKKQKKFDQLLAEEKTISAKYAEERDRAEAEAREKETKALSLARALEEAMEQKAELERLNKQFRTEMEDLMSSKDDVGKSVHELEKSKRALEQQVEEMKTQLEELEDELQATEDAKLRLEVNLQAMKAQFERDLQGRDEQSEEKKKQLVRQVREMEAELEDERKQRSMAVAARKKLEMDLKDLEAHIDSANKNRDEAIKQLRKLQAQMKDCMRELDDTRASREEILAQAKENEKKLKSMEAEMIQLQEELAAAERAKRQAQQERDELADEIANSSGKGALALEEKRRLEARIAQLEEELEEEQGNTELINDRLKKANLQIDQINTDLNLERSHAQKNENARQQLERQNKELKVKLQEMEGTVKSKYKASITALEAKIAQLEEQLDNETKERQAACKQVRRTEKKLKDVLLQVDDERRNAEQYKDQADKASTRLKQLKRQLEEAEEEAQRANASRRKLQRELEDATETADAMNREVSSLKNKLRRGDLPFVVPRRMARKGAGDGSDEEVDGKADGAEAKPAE
Sequence of platelet myosin 2 (P35579 whole entry): as above

For Cc1ccc2c(c1)C(=O)[C@]1(O)CCN(c3ccccc3)C1=N2 [blebbistatin], the “inhibition of myosin 1, myosin 5, and myosin 10” value [1] is listed as “does not inhibit”.
For Cc1ccc(S(=O)(=O)NCc2ccccc2)cc1 [BTS, N-Benzyl-p-toluenesulfonamide], the Binding strength (myosin 2) is given as ~5 µM, the “inhibits fast muscle skeletal myosin-2 times more stronger than slow skeletal muscle myosin-2, myocardial myosin-2 or non-muscle myosin 2” value (skeletal muscle myosin 2; selectivity among myosin 2 isoforms) is given as 100 times and the “inhibition of platelet myosin 2” value (platelet myosin 2) is given as “does not inhibit”.
For Cc1cc2c(s1)N=C1N(c3ccc(N4CCOCC4)cc3)CCC1(O)C2=O (stereo not drawn) [Compound 220, 9-Hydroxy-5-methyl-12-[4-(morpholin-4-yl)phenyl]-4-thia-2,12-diazatricyclo[7.3.0.0^3,7]dodeca-1,3(7),5-trien-8-one], the IC50 [2] was > 100 µM, the inhibition at 5 µM [2] was 0% and the inhibition at 50 µM [2] was 0%. The IC50 [3] was 0.93 µM, the “% inhibition. complete NM2A” value [3, 12] was 20% and the inhibition at 5 µM [3] was 16%. The inhibition at 50 µM [3] was 22%, the IC50 [4] was 1.8 µM and the “Inhibition (%) NM2C” value ([4]; maximum inhibition, compounds in IC50 range 1-5 μM) was 24%. The “% inhibition. complete NM2C” value [4, 12] was 24%, the inhibition at 5 µM [4] was 19% and the inhibition at 50 µM [4] was 21%. For the same compound, the IC50 [5] was 5.6 µM, the “Inhibition (%) cardiac” value ([5]; maximum inhibition, compounds in IC50 range 3-6 μM) was 39% and the “% inhibition. complete cardiac” value [5] was 39%. For the same compound, the inhibition at 5 µM [5] was 17%, the inhibition at 50 µM [5] was 37% and the “% inhibition at 5 μM (or 10 μM if racemate) Skeletal” value [6] was 86%. The “% inhibition at 50 μM (or 100 μM if racemate) Skeletal” value [6] was 94%, the IC50 [6] was 0.49 µM and the “% inhibition. complete Skeletal” value [6] was 96%. For the same compound, the IC50 [7] was 2.3 µM, the “Maximum change in isometric force at rear leg (%)” value (“Maximum change … at rear leg (%)” for short) (M. quadriceps femoris; 1 mg i.p.) was 19% and the “Maximum change … at rear leg (%)” value (M. quadriceps femoris; 3 mg i.p.) was 23%. For the same compound, the “Maximum change … at rear leg (%)” value (M. quadriceps femoris; 6 mg i.p.) was 42%, the “Maximum change of vital parameters (%) heart rate” value (“Maximum change … (%) heart rate” for short) ([8]; 1 mg i.p.) was 1% and the “Maximum change of vital parameters (%) oxygen saturation” value (from here on “Maximum change … (%) oxygen saturation”) ([8]; 1 mg i.p.) was −1%. The “Maximum change of vital parameters (%) respiratory frequency” value (“Maximum change … (%) respiratory frequency” for short) ([8]; 1 mg i.p.) was −13%, the “Maximum change of vital parameters (%) blood flow” value (“Maximum change … (%) blood flow” for short) ([8]; 1 mg i.p.) was 8% and the “Maximum change … (%) heart rate” value ([8]; 3 mg i.p.) was 8%. For the same compound, the “Maximum change … (%) oxygen saturation” value ([8]; 3 mg i.p.) was −17%, the “Maximum change … (%) respiratory frequency” value ([8]; 3 mg i.p.) was −21% and the “Maximum change … (%) blood flow” value ([8]; 3 mg i.p.) was 19%. The “Maximum change … (%) heart rate” value ([8]; 6 mg i.p.) was 22%, the “Maximum change … (%) oxygen saturation” value ([8]; 6 mg i.p.) was −28% and the “Maximum change … (%) respiratory frequency” value ([8]; 6 mg i.p.) was −22%. The “Maximum change … (%) blood flow” value ([8]; 6 mg i.p.) was −1%, the “Maximum change … (%) heart rate” value ([8]; 10 mg i.p.) was 3% and the “Maximum change … (%) oxygen saturation” value ([8]; 10 mg i.p.) was −41%. For the same compound, the “Maximum change … (%) respiratory frequency” value ([8]; 10 mg i.p.) was −30%, the “Maximum change … (%) blood flow” value ([8]; 10 mg i.p.) was −3% and the solubility [9] was 710 µM. The “% inhibition at 5 μM (or 10 μM if racemate) Smooth” value [10] was 34%, the “% inhibition at 50 μM (or 100 μM if racemate) Smooth” value [10] was 54% and the “% inhibition. complete Smooth” value [10] was 51%.
For O=C1c2ccncc2N=C2N(c3ccccc3)CCC12O (stereo not drawn) [Compound 174, 3a-Hydroxy-1-phenyl-1H,2H,3H,3aH,4H-pyrrolo[2,3-b]1,7-naphthyridin-4-one], the IC50 [2] was 10 µM, the “Inhibition (%) Dicty” value ([2]; maximum inhibition, compounds in IC50 range 1-11 μM) was 20% and the “% inhibition. complete Dicty” value [2, 12] was 20%. It also gave an inhibition at 5 µM [2] of 7%, an inhibition at 50 µM [2] of 17% and an IC50 [3] of 1 µM. For the same compound, the inhibition at 5 µM [3] was 12%, the inhibition at 50 µM [3] was 9% and the IC50 ([11]; concentration required for semi-maximal inhibition of ATPase) was 15 µM. For the same compound, the “% inhibition. complete NM2B” value [11, 12] was 12%, the inhibition at 5 µM ([11]; read-out: % inhibition at 5 μM (or 10 μM if racemate) NM2B, 5 μM (10 μM if racemate), ATPase activity) was 2% and the inhibition at 50 µM ([11]; read-out: % inhibition at 50 μM (or 100 μM if racemate) NM2B, 50 μM (100 μM if racemate), ATPase activity) was 9%. The IC50 [4] was 2 µM, the inhibition at 5 µM [4] was 7% and the inhibition at 50 µM [4] was 9%. For the same compound, the IC50 [5] was > 100 µM, the “% inhibition. complete cardiac” value [5] was 100% and the inhibition at 5 µM [5] was 2%. For the same compound, the inhibition at 50 µM [5] was 15%, the “% inhibition at 5 μM (or 10 μM if racemate) Skeletal” value [6] was 25% and the “% inhibition at 50 μM (or 100 μM if racemate) Skeletal” value [6] was 77%. The IC50 [6] was 17 µM, the “% inhibition. complete Skeletal” value [6] was 100% and the IC50 [7] was > 100 µM. The “Maximum change … at rear leg (%)” value (M. quadriceps femoris; 6 mg i.p.) was 25%, the “Maximum change … (%) heart rate” value ([8]; 6 mg i.p.) was 3% and the “Maximum change … (%) oxygen saturation” value ([8]; 6 mg i.p.) was −19%. The “Maximum change … (%) respiratory frequency” value ([8]; 6 mg i.p.) was −20%, the “Maximum change … (%) blood flow” value ([8]; 6 mg i.p.) was 4% and the solubility [9] was ≥ 1000 µM. For the same compound, the “% inhibition at 5 μM (or 10 μM if racemate) Smooth” value [10] was 1%, the “% inhibition at 50 μM (or 100 μM if racemate) Smooth” value [10] was 6% and the “% inhibition. complete Smooth” value [10] was 51%.
For CC(=O)/C(C)=N/O [BDM, 2,3-butanedione monoxime], the Binding strength (myosin 2) is given as ~5000 µM and the IC50 (skeletal muscle myosin 2; skeletal muscle myosin 2, binds weakly) is given as ~5 mM.

Source: patent US12421243B2, “Pharmaceutically effective compounds inhibiting selectively the myosin 2 isoforms” (PRINTNET KERESKEDELMI ÉS SZOLGÁLTATÓ KFT., priority 2018, dated 2025)
